Measurements taken from PubChem BioAssay (NCI).
Several values for one entry are separate records, joined by “and”; a condition that tells them apart may be missing. Identical values can stand only once.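 Growth conditions: 96-well plates. Treatment: test compound, 48 hours, 5 concentrations. Analysis: linear interpolation between bracketing concentrations; unreached endpoints set to highest concentration. GI50 marks 50% less growth. TGI is the concentration that stops growth completely.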 Where a SMILES comes first, the peptide text is derived from it. [ ]: non-standard residue; d: D form. The star is where a group is joined. ξ: configuration not given here. NMeY = CN[C@@H](Cc1ccc(O)cc1)C(=O)O; Cbz = O=C(OCc1ccccc1)*; ξA = CC(N)C(=O)O

How the values were obtained:
Experiment in all cases: NCI-60 cell line screen, 48 h
COLO 205 colon = system: COLO 205 colon
786-0 renal = system: 786-0 renal
NCI/ADR-RES ovarian = system: NCI/ADR-RES ovarian
DU-145 prostate = system: DU-145 prostate
NCI-H460 lung = system: NCI-H460 lung
CCRF-CEM leukemia = system: CCRF-CEM leukemia
OVCAR-3 ovarian = system: OVCAR-3 ovarian
HL-60(TB) leukemia = system: HL-60(TB) leukemia
HCT-15 colon = system: HCT-15 colon
SF-539 CNS = system: SF-539 CNS

Row | SMILES | TGI (COLO 205 colon) | TGI (786-0 renal) | TGI (NCI/ADR-RES ovarian) [µM] | TGI (DU-145 prostate) | TGI (NCI-H460 lung) | TGI (CCRF-CEM leukemia) [µM] | TGI (OVCAR-3 ovarian) [µM] | TGI (HL-60(TB) leukemia) [µM] | TGI (HCT-15 colon) | TGI (SF-539 CNS) [µM] | GI50 (CCRF-CEM leukemia) [µM] | GI50 (SF-539 CNS) [µM] | GI50 (COLO 205 colon) [µM] | GI50 (NCI/ADR-RES ovarian) [µM] | GI50 (DU-145 prostate) [µM] | GI50 (NCI-H460 lung) [µM] | GI50 (OVCAR-3 ovarian) [µM] | GI50 (HCT-15 colon) [µM]
1 | COc1ccc(C[C@@H](C(=O)NCC(N)=O)N(C)C(=O)[C@@H]2CCCN2C(=O)[C@H](CC(C)C)NC(=O)C(C)NC(=O)OCc2ccccc2)cc1 (stereo partly specified) (Cbz-[ξA]LP[NMeY](Me)G-NH2) | > 100 µM | > 100 µM | > 100 | > 100 µM | > 100 µM | > 100 | > 100 | > 100 | > 100 µM | > 100 | – | – | – | – | – | – | – | –
2 | CC1CN=C(c2cccc(OCc3ccc(COc4cccc(C5=NCC(C)N5)c4)cc3)c2)N1 (stereo unspecified) | 39 µM | > 100 µM | > 100 | > 100 µM | 78.5 µM | 66.8 | > 100 | > 100 | > 100 µM | 98.7 | – | – | – | – | – | – | – | –
3 | Cc1cccc(NC(=O)CC(=O)N2N=C(N3c4ccccc4Sc4ccccc43)CC2c2ccccc2)c1 (stereo unspecified) | > 100 µM | > 100 µM | > 100 | > 100 µM | > 100 µM | > 100 | > 100 | > 100 | > 100 µM | > 100 | – | – | – | – | – | – | – | –
4 | CN(C)CCCn1c2ccccc2c2cnccc21 | 30.2 µM | > 100 µM | > 100 | > 100 µM | 67 µM | > 100 | > 100 | 99.8 | > 100 µM | 48.2 | – | – | – | – | – | – | – | –
5 | COc1cn2c(cc1=O)COc1ccc(-c3ccccc3)cc1-2 | > 100 µM | > 100 µM | > 100 | > 100 µM | > 100 µM | > 100 | 98.8 | > 100 | > 100 µM | > 100 | 40.2 | 43.6 | – | – | – | – | – | –
6 | Oc1ccc2ccccc2c1-c1nnc(CCCCCCCCc2nnc(-c3c(O)ccc4ccccc34)o2)o1 | 15 µM and > 44.9 µM | 8.94 µM and 30.9 µM | – | 9.59 µM and > 24.2 µM | 25 µM and > 47.2 µM | > 60.3 | – | 2.5 | 25 µM and > 100 µM | 16.4 | – | – | 5.99 | 0.38 | 2.38 | 0.715 | 0.135 | 0.563
7 | CC1=NN(c2ccc(C)cc2)C2(C1)SCC(=O)N2c1nc2ccccc2s1 (stereo unspecified) | 57.9 µM | 71 µM | 76.2 | > 100 µM | 56.5 µM | 28.4 | 92.6 | 36.5 | > 100 µM | 46.8 | – | – | – | – | – | – | – | –
8 | CCCCn1cc(C(=O)O)c(=O)c2c3sccc3ccc21 | > 100 µM | > 100 µM | 43.4 | > 100 µM | > 100 µM | > 100 | > 100 | > 100 | > 100 µM | > 100 | – | – | – | – | – | – | – | –
